The source of these data is paper PMC12363265, “Glucagon-like peptide-1 receptor agonists for treatment of diabetes and obesity: advantage of oral delivery” (Frontiers in Drug Delivery, 2024).

Where a SMILES comes first, the peptide text is derived from it. [ ]: non-standard residue; d: D form. The star is where a group is joined. ξ: configuration not given here. ξGly(octyl) = CCCCCCCCC(N)C(=O)O; Hexenoyl(3E) = CC/C=C/CC(=O)*

One data set deals with blood glucose. As to the kind of experiment: Blood glucose response to exendin-4 in anaesthetised rats. The settings on record: exendin-4 co-formulated in Axcess with recombinant human insulin, via the intestine, n = 5. In kind it is in vivo, rat.
The conditions of data set [1]: ref unpublished data; cited from earlier work. The source says:
In a separate experiment, intestinal delivery was studied of two GLP-1 analogues where modifications were made with the aim of increasing their circulating half-life by several hours relative to the native molecule. In one variant, G001, the molecule was identical to native GLP-1, except that N-terminal amino group was conjugated with salicylic acid. In the second, lipidated, analogue, G002, the N-terminal was conjugated with trans-3-hexenoic acid, and in position 14, leucine was replaced by octyl glycine. In addition, glutamate and alanine in positions 21 and 24 respectively were reversed, an ...

Description for blood glucose: Male Sprague-Dawley rats aged 8 weeks were checked for health status on delivery and assigned to cages (2 or 3 animals per cage) within the social groups at delivery and with animals of similar weight in the same cage. Animals were acclimated to the facility for 7 days before transfer to the study room for a further 4 days before the start of the experiment. The rats were randomly allotted to control and treatment groups. Animals were identified by cage tag and corresponding colour tail markings. At day −2 daily 24 h food intake was registered for each cage with 2-3 rats. At 14.00 h on day −1 (i.e., the day prior to the surgery) 50% of the usual food consumed in that interval was offered to the rats. […]
All data were entered into Excel spreadsheets and subsequently subjected to relevant statistical analyses (Graph Pad Prism software). […] Bioavailability=AUC peptide enteral administration/quantity of peptide administered enterally×quantity of peptide injected i.v./AUC of peptide after i.v. injection×100 Biopotency=biological activity after enteral administration/quantity of peptide administered enterally×quantity of peptide injected i.v./biological activity after i.v. injection×100

On to “recombinant human insulin: recombinant human insulin co-formulated with exendin-4 in the Axcess formulation”, for which the “blood glucose with co-formulated insulin” value with blood glucose is “reduce blood glucose relative to exendin-4 administered alone”.

As to “Sal-HAEGTFTSDVSSYLEGQAAKEFIAWLVKGR-NH2 [G001, identical to native GLP-1, except that N-terminal amino group was conjugated with salicylic acid]”, the half-life in rats in data set [1] is 0.417 h.

For the molecule `CC/C=C/CC(=O)N[C@@H](Cc1c[nH]cn1)C(=O)N[C@@H](C)C(=O)N[C@@H](CCC(=O)O)C(=O)NCC(=O)N[C@H](C(=O)N[C@@H](Cc1ccccc1)C(=O)N[C@H](C(=O)N[C@@H](CO)C(=O)N[C@@H](CC(=O)O)C(=O)N[C@H](C(=O)N[C@@H](CO)C(=O)N[C@@H](CO)C(=O)N[C@@H](Cc1ccc(O)cc1)C(=O)NC(CCCCCCCC)C(=O)N[C@@H](CCC(=O)O)C(=O)NCC(=O)N[C@@H](CCC(N)=O)C(=O)N[C@@H](C)C(=O)N[C@@H](C)C(=O)N[C@@H](CCCCN)C(=O)N[C@@H](C)C(=O)N[C@@H](Cc1ccccc1)C(=O)N[C@H](C(=O)N[C@@H](CCC(=O)O)C(=O)N[C@@H](Cc1c[nH]c2ccccc12)C(=O)N[C@@H](CC(C)C)C(=O)N[C@H](C(=O)N[C@@H](CCCCN)C(=O)N[C@@H](CC(N)=O)C(N)=O)C(C)C)[C@@H](C)CC)C(C)C)[C@@H](C)O)[C@@H](C)O` (stereo partly drawn) [G002] ({Hexenoyl(3E)}-HAEGTFTSDVSSY[ξGly(octyl)]EGQAAKAFIEWLVKN-NH2), the half-life in rats in data set [1] is recorded as about 12 h.
